In ChEMBL document CHEMBL3988442, “University of Dundee, Small-Polar-MMV Screening Library” (2021):

What was measured:
[1] = microbe, parasite or virus in culture; conditions: Mycobacterium tuberculosis, 96 h, read-out: pIC50 (converted)
[2] = microbe, parasite or virus in culture; conditions: Mycobacterium tuberculosis, 72 h, read-out: pIC50 (converted)

SMILES	IC50 [1] [µM]	IC50 [2] [µM]
CC(C)Oc1ccc(C(=O)NCc2ccnc(N3CCCC3)c2)cn1	45.1	36.9
CC(=O)Nc1cccc(-c2ccccc2CCN)c1	> 50.1	49.7
Cc1nc(CNC(=O)c2cc(C3CC3)[nH]n2)cs1	> 501	> 501
COC[C@@H]1CN(C)C(=O)[C@@H]2CCN(Cc3ccco3)CC[C@H]12	> 50.1	> 50.1
CC(Oc1ccc(Cl)cc1)C(=O)N(C)C (centres undefined)	> 501	> 501
O=C(NCCOc1ncccc1Cl)c1ccsc1	145	470
CN(Cc1cccc(C(N)=O)c1)C(=O)c1occc1Br	> 501	> 501
CCNc1ccnc(N2Cc3cnn(Cc4ccc(F)cc4)c3C2)n1	27.4	> 50.1
NS(=O)(=O)C1CCN(Cc2ccc(Br)c(F)c2)C1 (centres undefined)	> 501	171
CC(C)N(CCOc1cccc(F)c1)CC(N)=O	199	210
O=C(NCc1ccc2c(c1)OCO2)Nc1nccs1	> 501	> 501
CC(N)c1noc(-c2ccc(Cl)cc2)n1 (centres undefined)	375	261
COCCN(Cc1cccs1)C(=O)CC1CCNC1 (centres undefined)	329	159
CN(C)C(=O)CCN1CCCC1c1ccsc1 (centres undefined)	> 501	196
Cc1ccc(CCNC(=O)CSCCN2CCCC2)o1	> 501	306
CC(C)c1cc(N(C)Cc2noc(C3CCCC3)n2)n2nccc2n1	15.5	9.63
Nc1ccc(CNc2nc(C3CC3)ns2)cn1	> 501	> 501
NC(=O)C(Sc1nnc[nH]1)c1ccc(Br)cc1 (centres undefined)	> 501	> 501
CCNC(=O)NC(=O)CN(C)Cc1ccccc1	134	171
CSCCC(=O)N(C)Cc1cccc(-n2cccn2)c1	286	269
COc1ccc(C(=O)NC2COc3ccccc3C2)cc1OCC(=O)O (centres undefined)	26	> 50.1
COc1ccc(CN2C[C@H](O)[C@@H](N(C)C)C2)c(C)c1C	349	105
NCCc1cccc2cc[nH]c12	211	177
COC(=O)N1CCN(c2ccccn2)CC1	168	> 501
COCCN1CCN(C(C)C(=O)Nc2ccnn2C(C)C)CC1 (centres undefined)	> 50.1	> 50.1
Cc1n[nH]c(C)c1CN(C)C(C(=O)O)c1c(F)cccc1OC(C)C (centres undefined)	> 50.1	> 50.1

SMILES	IC50 [1] [µM]	IC50 [2] [µM]
NC(=O)CCS(=O)(=O)CCN1CCCCCC1	> 501	158
O=C(NCCc1c[nH]c2ccccc12)C1(n2cnnn2)CCCCC1	> 50.1	47.6
CN(CC(=O)Nc1sccc1C(N)=O)Cc1cccs1	> 501	117
CCC(=O)c1cccc(S(=O)(=O)NC(CN)C2CC2)c1 (centres undefined)	> 501	> 501
NCC(=O)N1CCCC(CCc2ccccc2F)C1 (centres undefined)	256	271
COc1cccc(CN(C)C(=O)c2occc2C)n1	279	188
NCC(CO)Cc1ccsc1 (centres undefined)	176	122
CN(Cc1nnc2n1CCC2)C(=O)c1ccc2c(c1)OCCCO2	> 50.1	> 50.1
CN(CC(=O)N1CCOCC1)Cc1cc(Br)cs1	55.2	114
CCOC(=O)c1cnn(-c2ccc(OCC)cc2)c1N	53.9	81.7
Cc1nc(C2CCCN2Cc2cc(Cl)c3c(c2)OCCO3)no1 (centres undefined)	15.9	22.3
Cc1nnc(SCCC(=O)N(C)Cc2c(F)cccc2Cl)[nH]1	> 50.1	> 50.1
NCc1cc(Oc2cccc(F)c2)ccn1	> 501	45.4
CCOCC(C)Nc1ccc(C)c(S(C)(=O)=O)c1 (centres undefined)	221	188
CCCS(=O)(=O)NCC(O)Cc1ccccc1 (centres undefined)	197	136
CCc1ccccc1OC1CN(C(=O)c2ccsc2)C1	> 50.1	8.19
NCc1cccc2cc[nH]c12	261	245
Cc1nn2c(NCC(=O)NC3CC3)cc(-c3ccccc3)nc2c1C	12.1	13.4
N#Cc1ccc(NC(=O)Cn2ccnc2)cc1	> 501	> 501
COc1cc(CN)cc(Br)c1OC	> 501	78.5
COC(=O)COc1ccc(C(C)=O)cc1Cl	354	264
Cc1cc(C)c(C#N)c(N2CCC(Cc3ccccc3)CC2)n1	> 50.1	> 50.1
CNc1nnc(-c2ccccc2)s1	> 501	> 501
O=C(NCc1cccs1)c1cnsn1	17.4	3.61
CN1N=C(C(=O)NCc2ccc(Cl)cc2)CCC1=O	38.8	26.9
FC(F)Oc1cccc(N2CCNCC2)c1	347	147
